Series [1] can be described thus: Microsomal intrinsic clearance (Clint), rat. The note with it: rat liver microsomes, 0.5 μM compound. Format: in vitro ADME. The procedure: (§1) Each test compound (0.5 μM) was incubated with pooled female CDI mouse liver microsomes, pooled male Sprague–Dawley rat microsomes, or pooled mixed gender human liver microsomes (Tebu-Bio, UK; 0.5 mg/mL 50 mM potassium phosphate buffer, pH 7.4) and the reaction started with addition of excess NADPH (8 mg/mL, 50 mM potassium phosphate buffer, pH 7.4). Immediately, at time zero, then at 3, 6, 9, 15, and 30 min, an aliquot (50 μL) of the incubation mixture was removed and mixed with acetonitrile (100 μL) to stop the reaction. Internal standard was added to all samples, and the samples were centrifuged at 1825g for 10 min to sediment precipitated protein. The plates were then sealed prior to UPLC/MS/MS analysis using a Quattro Premier XE (Waters Corporation, USA).
(§2) XLfit (IDBS, UK) was used to calculate the exponential decay and consequently the rate constant (k) from the ratio of peak area of test compound to internal standard at each time point.

The next series is described as follows: in vitro. The following applies: human, MRC-5 fibroblasts.
Series [2] is described as follows: In vivo mouse pharmacokinetics. The following applies: for Cmax / Tmax / half-life / AUC(0-t) at 8 h / AUC(0-t): female, mouse, in vivo, 10 mg/kg, NMRI mice; for AUC(0-t) at 8 h: read-out: AUC0–8; for AUC(0-t): read-out: AUC0–8 (converted). The procedure: Each compound was dosed as a bolus solution intraperitoneally at 10 mg free base/kg (dose volume, 10 mL/kg; dose vehicles used, 10% DMSO; 40% PEG400; 50% Milli-Q water or 5% DMSO; 40% PEG400; 55% saline) to female HRN (1 only) or NMRI mice (n = 3) or dosed orally by gavage as a solution at 10 mg free base/kg (dose volume, 10 mL/kg; dose vehicle, 10% DMSO; 40% PEG400; 50% Milli-Q water) to female NMRI mice (n = 3). Female NMRI mice were chosen, as these represent the sex and strain used for the stage 1 and stage 2 HAT efficacy models. Blood samples were taken from each mouse at 5 (IP only), 15, and 30 min, 1, 2, 4, 6, and 8 h post dose, mixed with two volumes of distilled water, and stored frozen until UPLC/MS/MS analysis. Pharmacokinetic parameters were derived from noncompartmental analysis of the blood concentration time curve using PK solutions software v 2.0 (Summit Research Services, USA).

Series [3] in a line: Brain tissue binding by equilibrium dialysis. Format: in vitro ADME. The note with it: Sprague-Dawley, brain homogenate; rat (male SD rat); read-out: brain tissue binding (rat), Fu. How it is done: In brief, a 96-well equilibrium dialysis apparatus was used to determine the free fraction in the brain for the test compound (HT Dialysis LLC, Gales Ferry, CT). Membranes (12–14 kDa A cutoff) were conditioned in deionized water for 60 min, followed by conditioning in 80:20 deionized water:ethanol for 20 min and then rinsed in artificial cerebrospinal fluid (CSF) before use. Mouse brain was removed from the freezer and allowed to thaw on the day of experiment. […] Diluted brain homogenate was spiked with the test compound (10 ug/g), and 150 μL aliquots (n = 6 replicate determinations) loaded into the 96-well equilibrium dialysis plate. Dialysis vs artificial CSF (150 μL) was carried out for 5 h in a temperature controlled incubator at ca. 37 °C (Stuart scientific Ltd., UK) using an orbital microplate shaker at 125 rpm (Stuart scientific Ltd., UK). […] All samples were analyzed by means of UPLC/MS/MS on a Quattro Premier XE mass spectrometer (Waters Corporation, USA). The unbound fraction was determined as the ratio of the peak area in artificial CSF to that in brain, with correction for dilution factor according to eq 1.[42] […] 1 where D = dilution factor in brain homogenate and Fu,apparent is the measured free fraction of diluted brain homogenate.

Series [4] in a line: Plasma protein binding by equilibrium dialysis, mouse. The following applies: read-out: plasma protein binding, Fu (fraction unbound). It is filed as in vitro ADME. The procedure:
(§3) The software package StarDrop by Optibrium was used to calculate physicochemical parameters including log P, molecular weight, and polar surface area (PSA). The aqueous kinetic solubility of the compounds was measured using laser nephelometry as previously described.[40] The plasma protein binding of the compounds was determined by the equilibrium dialysis method.[12]

Series [5] deals with bloodstream form T. brucei brucei. The series is described as follows: T. b. brucei whole cell parasite (trypanosome growth) assay. Format: cell-based, Trypanosoma brucei brucei. The note with it: for EC50: Trypanosoma brucei, mean of two or more determinations, 69 h + 4 h resazurin, read-out: T. b. brucei EC50. The procedure: This was conducted as previously described.[27] Cell culture plates were stamped with 1 μL of an appropriate stock concentration of test compound, followed by addition of 200 μL of trypanosome culture (HMI9-T, 10% FCS) to each well at a density of 2000 cells per well (except column 12 receiving media only). […] Potency was carried out using 10-point dose–response curves.

A short description of series [6]: Microsomal intrinsic clearance (Clint), human. Format: in vitro ADME. The following applies: human liver microsomes, 0.5 μM compound. The procedure:
as §1, §2

Series [7] can be described thus: Aqueous kinetic solubility by laser nephelometry. It is filed as physicochemical. The note with it: aqueous medium, Table 7. How it is done:
as §3

Series [8] is described as follows: Microsomal intrinsic clearance (Clint), mouse. It is filed as in vitro ADME. The following applies: mouse liver microsomes, 0.5 μM compound. How it is done:
as §1, §2

Series [9] is described as follows: Mouse brain penetration (brain:blood ratio). The following applies: in vivo, dosed intravenously at 0.5 or 1 mg/kg, levels measured after 5 min, female NMRI mice, read-out: B:B (brain to blood ratio). How it is done: Each compound was dosed as a bolus solution intravenously at 0.5 or 1 mg free base/kg (dose volume, 5 mL/kg; dose vehicle, 10% DMSO; 40% PEG400; 50% Milli-Q water) to female NMRI mice (n = 6). At 5 and 30 min following intravenous bolus injection of test compound, mice (n = 3/time point) were placed under terminal anesthesia with isofluorane. A blood sample was taken by cardiac puncture and mixed with two volumes of distilled water, the mice decapitated, and the brain removed. Diluted blood and brains were stored frozen until preparation and analysis by UPLC/MS/MS. For each mouse at each time point, the concentration in brain (ng/g) was divided by the concentration in blood (ng/mL) to give a brain:blood ratio. The mean value obtained was quoted.

In series [10] the test system is panel of receptors, including dopamine, serotonin, histamine, and muscarinic receptors. The series is described as follows: NIMH Psychoactive Drug Screening Program (PDSP) receptor panel. It is filed as binding. The note with it: significant inhibition is considered > 50%. The source says:
However, the observed toxicity prevents further progression of the compounds. To try and identify a possible driver for toxicity, that may then offer an opportunity to design out this unwanted effect, the key compounds were screened against a panel of receptors at the NIMH Psychoactive Drug Screening Program (PDSP).[36],[37] No significant activity against a large panel of receptors, including dopamine, serotonin, histamine, and muscarinic receptors (see Supporting Information) was observed.
S2: Details of receptors screened at the NIMH Psychoactive Drug Screening Program […]
receptors screened. Significant inhibition is considered > 50%. In cases where negative inhibition (-) is seen, this represents a stimulation of binding. The receptors screened were 5- […]
HT7, Alpha1A, Alpha1B, Alpha1D, Alpha2A, Alpha2B, Alpha2C, Beta1, Beta2, Beta3, BZP rat Brain site, D1, D2, D3, D4, D5, DAT, DOR, GABBA, H1, H2, H3, KOR, M1, M2, M3, M4, M5, MOR, NET, PBR, SERT, Sigma1 and Sigma2

“And” between values parts separate entries of the source, which are not always exact repeats. Equal values may be shown once. Read-outs that look alike come from different tables or passages of the source.

Method for in vitro: Proliferation assays using bloodstream form T. brucei brucei and human MRC-5 fibroblasts were conducted using a modification of the cell viability assay as previously reported.[27],[39]
MRC-5 cells (2000 cells per well) were seeded in 200 μL of DMEM, 10% FCS, and allowed to adhere overnight. One microliter of test compound was added to each well on the day of assay initiation.
The final DMSO level was 0.5% in all cases.

Turning to `CNC(=O)C1Cc2cc(F)ccc2N1C(=O)COc1ccc(F)cc1` (centres unmarked) [Compound 55, 5-fluoro-1-(2-(4-fluorophenoxy)acetyl)-N-methylindoline-2-carboxamide], the “microsomal intrinsic clearance, rat” value in [1] was 2.1 mL min^–1 g^–1. Also, the EC50 at 69 h in the series “in vitro” was greater than 50000 nM. Further, the “higher AUC compared to 1” value in series [2] (IP, female NMRI mice) is given as 1.5–6.5 fold. Also, in series [2] (IP), the Cmax was 2900 ng/mL and 8.4 µM; the time to peak (Tmax) was found to be 60 min; the half-life is 72 min; the AUC(0-t) at 8 h is 34 µM·h. Further, in series [2] (IP), the AUC(0-t) is 11800 ng·h/mL. Further, in series [2] (PO), the Cmax is 1500 ng/mL and 4.3 µM; the Tmax turned out to be 30 min; the half-life was 120 min; the AUC(0-t) at 8 h is 10 µM·h. Besides, the AUC(0-t) in series [2] (PO) was 3500 ng·h/mL. Also, the fraction unbound at 5 h, 10 ug/g in series [3] was 0.29. Also, the fraction unbound in [4] is 0.33. Besides, the Hill slope in series [5] (T. brucei EC50 curve) was determined as 4.4. In addition, in series [5], the EC50 was determined as 80 nM. For the same compound, in series [6], the “microsomal intrinsic clearance, human” value is 0.5 mL min^–1 g^–1 and < 0.5 mL min^–1 g^–1. In series [7], the solubility was greater than 100 µg/mL. Also, in series [8], the “mouse microsomal intrinsic clearance” value was 1.3 mL min^–1 g^–1. For the same compound, in series [9], the Kp at 5 min is 1.4.
Regarding `CNC(=O)C1Cc2cc(F)ccc2N1C(=O)COc1ccc(Cl)cc1` (centres unmarked) [Compound 54], in [1], the “microsomal intrinsic clearance, rat” value amounted to 5.3 mL min^–1 g^–1. Also, the EC50 at 69 h in the series “in vitro” was greater than 50000 nM. Moreover, in series [5], the half-maximal effective concentration (EC50) is 60 nM. In addition, the “microsomal intrinsic clearance, human” value in [6] stood at 1.6 mL min^–1 g^–1. Further, the “mouse microsomal intrinsic clearance” value in series [8] was found to be 2.8 mL min^–1 g^–1.
The compound `CNC(=O)C1Cc2ccccc2N1C(=O)COc1ccc(F)cc1` (centres unmarked) [Compound 35, 1-(2-(4-fluorophenoxy)acetyl)-N-methylindoline-2-carboxamide] showed an EC50 at 69 h in the series “in vitro” greater than 50000 nM. Also, in series [2] (IP), the Cmax is 910 ng/mL and 2.8 µM; the Tmax was 15 min; the half-life was 66 min; the AUC(0-t) at 8 h was 5.6 µM·h. For the same compound, the AUC(0-t) in series [2] (IP) is 1830 ng·h/mL. In addition, in series [2] (PO), the Cmax is 180 ng/mL and 550 nM; the Tmax stood at 15 min; the half-life is 42 min; the AUC(0-t) at 8 h was found to be 0.8 µM·h. Also, the AUC(0-t) in [2] (PO) is 250 ng·h/mL. Also, the “inhibition against receptors screened” value in series [10] is “did not show significant inhibitor”. Further, in [4], the fraction unbound stood at 0.42. Further, the EC50 in [5] is 20 nM. In addition, in [8], the “mouse microsomal intrinsic clearance” value is 1.2 mL min^–1 g^–1 and 1.2/ND mL min^–1 g^–1. In addition, the Kp at 5 min in [9] came out at 1.5.
For the compound `CNC(=O)[C@H]1Cc2ccccc2N1C(=O)COc1ccc(F)cc1` [Compound 36], in [1], the “microsomal intrinsic clearance, rat” value turned out to be 4.9 mL min^–1 g^–1. The EC50 at 69 h in “in vitro” was greater than 50000 nM. In series [5], the EC50 came to 40 nM. Further, the “microsomal intrinsic clearance, human” value in series [6] was determined as 1.3 mL min^–1 g^–1. For the same compound, in [8], the “mouse microsomal intrinsic clearance” value is 1.2 mL min^–1 g^–1.

(Values after publication PMC4601051, “Discovery of Indoline-2-carboxamide Derivatives as a New Class of Brain-Penetrant Inhibitors of Trypanosoma brucei” (Journal of Medicinal Chemistry, 2015).)
